A short description of this series: Toxicity against Artemia larvae. In kind it is organism-based. Conditions: in vivo, read-out: LD50 (the source's name).

≈ marks a conversion by molar mass, not a printed value. Some results are limits rather than exact numbers.

For the compound `CCCC[C@H](C)C[C@]1(CC)C=C(CC)/C(=C/C(=O)OC)O1`, the LC50 came out at 7 µg/mL (≈ 23.8 µM).
The figure for `CCCC[C@H](C)CC1(CC)C=C(CC)C(CC(=O)OC)OO1` (some centres undefined) is 70 µg/mL (≈ 224 µM); for `CCCC[C@H](C)CC1(CC)C=C(CC)C(CC(=O)OCC)OO1` (some centres undefined) it is more than 100 µg/mL.
The figure for `CCCC[C@H](C)CC(CC)C[C@@]1(CC)C[C@H](CC)[C@H](CC(=O)O)OO1` (some centres undefined) is 15 µg/mL (≈ 42.1 µM).

The values above are taken from ChEMBL document CHEMBL1150935, “New polyketides from the sponge Plakortis sp” (J Nat Prod, 1998).
